From US20120122225A1, “CARRIER PEPTIDE FRAGMENT AND USE THEREOF” (TOAGOSEI CO. LTD., priority 2009, published 2012)
* marks the point of attachment. FITC = O=C1OC2(c3ccc(O)cc3Oc3cc(O)ccc32)c2ccc(NC(=S)*)cc21; Ahx = NCCCCCC(=O)O

Tests used:
[1] = system: Human neonate foreskin fibroblasts (ATCC Catalogue No. CRL-2097); assay: Evaluation of cell membrane permeability function (1), confocal laser scanning microscopy of fluorescently labeled peptide; assay type: cell-based; details: 1 μM sample
Protocol: Human neonate foreskin fibroblasts (ATCC Catalogue No. CRL-2097) were used as the eukaryotic cells, and the cell membrane permeability capability of the two samples (constructs for transferring a foreign substance) obtained in Example 1 above was investigated.
More specifically, the abovementioned fibroblasts were cultured in a liquid mixture of 90% Eagle MEM culture medium (containing 0.1% nonessential amino acids, 2 mM L-glutamine, 1 mM sodium pyruvate, and 1.5 g/L sodium hydrogen carbonate) and 10% serum (FBS) as the culture medium.
The cultured cells were trypsinized for 1 min at 37° C. with a 0.25% trypsin solution. After the abovementioned treatment, the trypsin was deactivated with FBS-containing medium, and a cell suspension (test sample for foreign substance transfer) was prepared by adjusting the cell concentration to approximately 5×10^4 cells/mL with the culture medium.
Next, 0.5 mL of the abovementioned cell suspension was placed in a designated cell culturing container (culture slide with a surface coating of 0.1% gelatin), and the cells were incubated overnight at 37° C. in a 5% CO2 atmosphere. After incubation the medium was replaced with fresh culture medium, and the 1 mM sample solutions of each of the samples prepared in abovementioned Example 1 were added to a cell culture container so that the final sample concentration (peptide concentration) would be 1 μM. In this case 0.5 μL of sample solution was added to the container. Then the samples were incubated at 37° C. for either 1 or 4 hours in a 5% CO2 atmosphere.
The cells after 1 hour of culture and the cells after 4 hours of culture were each rinsed in PBS (phosphate buffered saline) and fixed with methanol (on ice for 10 min).
Next the methanol-fixed samples (cells) were mounted using Prolong® Gold Antifade Reagent (Invitrogen) that contains the nuclear stain DAPI (4′,6-diamidino-2-phenylindole). Then the localization within the cells of the peptide bonded to the fluorescent dye (i.e., fluorescently labeled peptide) in each test sample (i.e., the abovementioned mounted test samples after methanol fixation) was verified using a confocal scanning laser microscope.
FIGS. 1 and 2 are micrographs showing the results when abovementioned Sample No. 1 was added to the liquid suspension of cells.

[2] = system: human iPS cells (cell line 201B2-082008KU); assay: Evaluation of cell membrane permeability function (2), confocal laser scanning microscopy of fluorescently labeled peptide; assay type: cell-based; details: 1 μM sample; for penetration of the cell membrane from outside the cell / transfer into the cells: 1 hour culture (FIGS. 3, 4), methanol fixed
Excerpt: The target cells for transferring the foreign substance were changed from human neonate foreskin fibroblasts to human iPS cells (human induced pluripotent stem cells), and the cell membrane permeability capability of the two samples (constructs for transferring a foreign substance) obtained in Example 1 above was investigated. It should also be noted that the iPS cells (cell line 201B2-082008KU) and the mouse embryonic fibroblast feeder cells (cell line SNL 76/7, hereinafter “MEF”) used in this example were provided by the Yamanaka Research Laboratory of the Institute for Frontier Medical Sciences, Kyoto University (professor Shinya Yamanaka).
First the obtained MEF were inactivated by a mitomycin C treatment (3 hours) and then trypsinized in a 0.25% trypsin solution containing 1 mM EDTA. After the above treatment, the trypsin was deactivated with culture medium containing FBS, and the MEF were adjusted to a suitable cell density using D-MEM medium (Dulbecco's Modified Eagle Medium: Gibco) containing MEF culture medium (7% FBS: Gibco), 2 mM L-glutamine (Gibco), 50 units/mL penicillin, and 50 μg/mL streptomycin (Gibco), and the abovementioned MEF were seeded onto a culture container (in the form of a culture slide or plate) with a surface coating of 0.1% gelatin. In this case, the MEF were seeded so that the cell density would be approximately 1.25×10^5 cells/mL. Next, the abovementioned cell culture containers were incubated overnight at 37° C. in a 5% CO2 atmosphere.
Thereafter, the feeder cells were prepared by removing the MEF culture medium and rinsing with PBS.
Separately, CTK solution (0.25% trypsin solution containing 0.1 mg/mL collagenase IV (Gibco), 1 mM calcium chloride, and 20% KSR (KnockOut® Serum Replacement)) was added to the obtained iPS cell line, the MEF were peeled therefrom, and the cells were rinsed with PBS.
Next, 1 mL hESC culture medium (i.e., human ES cell medium, in this case, DMEM/F12 culture medium (Gibco) containing 20% KSR (Gibco), 2 mM L-glutamine (Gibco), 0.1% nonessential amino acids (Gibco), 0.1 mM 2-mercaptoethanol (Gibco), 50 units/mL penicillin, and 50 μg/mL streptomycin (Invitrogen, 4 ng/mL bFGF (basic fibroblast growth factor)) was added, the iPS cells were peeled off using a cell scraper, and the colony was broken apart by gentle pipetting.
A suspension of iPS cells obtained in this manner was seeded onto the feeder cells in the culture containers that had been prepared as described above. Then, the abovementioned hESC medium was added, and the cell culture containers were incubated overnight at 37° C. in a 5% CO2 atmosphere.
After incubation overnight, the culture medium was removed from the culture containers, and the abovementioned hESC medium to which one of the 1 mM sample solutions prepared in abovementioned Example 1 had been added to make a final sample concentration (pipetted concentration) of 1 μM was added to the culture containers. Then the samples were incubated at 37° C. for either 1 or 4 hours in a 5% CO2 atmosphere.
The cells after 1 hour of culture and cells after 4 hours of culture were each rinsed in PBS (phosphate buffered saline) and fixed with methanol (on ice for 10 min).
Next, the same treatment as in Example 2 was performed, and the localization within the iPS cells of the peptide that was bonded to the fluorescent dye (i.e., fluorescently labeled) was verified using a confocal scanning laser microscope. FIG. 3 is a micrograph showing the results after 1 hour of culture of the cell suspension to which abovementioned Sample No. 1 had been added, and FIG. 4 is a micrograph after 1 hour of culture of the cell suspension to which abovementioned Sample No. 2 had been added.

Row | Substance | cell membrane permeability [1] | cell membrane permeability [2] | translocation into the nucleus (DAPI nuclear staining) [2] | penetration of the cell membrane from outside the cell / transfer into the cells [2] | translocation into the nucleus (DAPI nuclear staining) ([1]; 1 or 4 hours culture) | penetration of the cell membrane from outside the cell / transfer into the cells ([1]; 1 or 4 hours culture, methanol fixed)
1 | (FITC)-(Acp)-WRRQARFKGTLKERCLQVVRSLVK ({FITC-Ahx}-WRRQARFKGTLKERCLQVVRSLVK-NH2; SMILES CC(C)C[C@H](NC(=O)[C@H](CS)NC(=O)[C@H](CCCNC(=N)N)NC(=O)[C@H](CCC(=O)O)NC(=O)[C@H](CCCCN)NC(=O)[C@H](CC(C)C)NC(=O)[C@@H](NC(=O)CNC(=O)[C@H](CCCCN)NC(=O)[C@H](Cc1ccccc1)NC(=O)[C@H](CCCNC(=N)N)NC(=O)[C@H](C)NC(=O)[C@H](CCC(N)=O)NC(=O)[C@H](CCCNC(=N)N)NC(=O)[C@H](CCCNC(=N)N)NC(=O)[C@H](Cc1c[nH]c2ccccc12)NC(=O)CCCCCNC(=S)Nc1ccc2c(c1)C(=O)OC21c2ccc(O)cc2Oc2cc(O)ccc21)[C@@H](C)O)C(=O)N[C@@H](CCC(N)=O)C(=O)N[C@H](C(=O)N[C@H](C(=O)N[C@@H](CCCNC(=N)N)C(=O)N[C@@H](CO)C(=O)N[C@@H](CC(C)C)C(=O)N[C@H](C(=O)N[C@@H](CCCCN)C(N)=O)C(C)C)C(C)C)C(C)C) [Sample No. 2, FITC bonded via linker Acp (6-aminohexanoic acid) to the N-terminus of Peptide 2; construct for transferring a foreign substance] | exhibited excellent cell membrane permeability | exhibited excellent cell membrane permeability | had further translocated into the nucleus | penetrated the cell membrane from outside the cell rapidly after addition and were transferred into the cells | – | –
2 | (FAM)-WRRQARFK [Sample No. 1] | exhibited excellent cell membrane permeability | exhibited excellent cell membrane permeability | had further translocated into the nucleus | penetrated the cell membrane from outside the cell rapidly after addition and were transferred into the cells | had translocated into the nucleus | penetrated the cell membrane from outside the cell rapidly after it was added, and thus was transferred into the cells
